Test results reported in patent US10617680B2 (CELGENE QUANTICEL RESEARCH, INC., priority 2017, dated 2020).

target: BRD4 (Homo sapiens (Human), UniProt O60885); experiment: In vitro enzyme inhibition assay - BRD4 inhibition; type: binding; settings: BRD4 BD1, Table 30

`Cc1cc(-c2cnn(C(c3ccccc3)C3CC3)c2)cn(C)c1=O` (stereo not drawn) [Example 18, 5-(1-(cyclopropyl (phenyl)methyl)-1H-pyrazol-4-yl)-1,3-dimethyl-pyridin-2(1H)-one] and `CC(c1ccccc1)n1cc(-c2cn(C)c(=O)cc2N2CCCC2)cn1` (stereo not drawn) [Example 41, 1-methyl-5-(1-(1-phenylethyl)-1H-pyrazol-4-yl)-4-(pyrrolidin-1-yl) pyridin-2(1H)-one] fall in the same range of IC50: 500 to 5000 nM for the first, 500 to 5000 nM for the second.

Work on `CC(c1ccccc1)n1cc(-c2cn(C)c(=O)cc2N2CCOCC2)cn1` (stereo not drawn) [Example 43, 1-methyl-4-morpholino-5-(1-(1-phenylethyl)-1H-pyrazol-4-yl) pyridin-2(1H)-one] yielded an IC50 of 500 to 5000 nM.

target: CBP (Homo sapiens (Human), UniProt Q92793); experiment: In vitro CBP inhibition (AlphaScreen, biotinylated H4-tetraacetyl peptide); type: binding; settings: AlphaScreen, Table 29; read-out: CBP IC50
Sequence (Q92793 1081-1197): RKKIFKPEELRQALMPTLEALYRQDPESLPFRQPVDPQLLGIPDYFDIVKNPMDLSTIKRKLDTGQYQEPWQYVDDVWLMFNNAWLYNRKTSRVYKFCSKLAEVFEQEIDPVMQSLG
Outline: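 His-tagged CBP expressed in E. coli (50 nM final) incubated with biotinylated H4K5/8/12/16(Ac) peptide (20 nM final) in 50 mM HEPES pH 7.3, 10 mM NaCl, 0.25 mM TCEP, 0.1% BSA, 0.005% Brij-35, 0.4% DMSO, 20 min at room temp.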

`CC(c1ccccc1)n1cc(-c2cn(C)c(=O)cc2N2CCCC2)cn1` (stereo not drawn) [Example 41, 1-methyl-5-(1-(1-phenylethyl)-1H-pyrazol-4-yl)-4-(pyrrolidin-1-yl) pyridin-2(1H)-one] and `CC(c1ccccc1)n1cc(-c2cn(C)c(=O)cc2N2CCOCC2)cn1` (stereo not drawn) [Example 43, 1-methyl-4-morpholino-5-(1-(1-phenylethyl)-1H-pyrazol-4-yl) pyridin-2(1H)-one] cannot be ordered by IC50: less than 500 nM for the first, less than 500 nM for the second.

`Cn1cc(-c2cnn(-c3cccc(F)c3C#N)c2)c(-c2ccc(C(F)(F)F)nc2)cc1=O` [Example 368, 2-fluoro-6-(4-(1′-methyl-6′-oxo-6-(trifluoromethyl)-1′,6′-dihydro-[3,4′-bipyridin]-3′-yl)-1H-pyrazol-1-yl)benzonitrile] and `Cc1ccc(-c2cc(=O)n(C)cc2-c2cnn(-c3cccc(Cl)c3C#N)c2)cn1` [Example 369, 2-chloro-6-(4-(1′,6-dimethyl-6′-oxo-1′,6′-dihydro-[3,4′-bipyridin]-3′-yl)-1H-pyrazol-1-yl)benzonitrile] cannot be ordered by IC50: less than 500 nM for the first, less than 500 nM for the second.

`Cn1cc(-c2cnn(-c3cccc(Cl)c3C#N)c2)c(-c2ccc(C(F)(F)F)nc2)cc1=O` [Example 370, 2-chloro-6-(4-(1′-methyl-6′-oxo-6-(trifluoromethyl)-1′,6′-dihydro-[3,4′-bipyridin]-3′-yl)-1H-pyrazol-1-yl)benzonitrile] and `CCc1ccc(-c2cc(=O)n(C)cc2-c2cnn(-c3cccc(Cl)c3C#N)c2)cn1` [Example 371, 2-chloro-6-(4-(6-ethyl-1′-methyl-6′-oxo-1′,6′-dihydro-[3,4′-bipyridin]-3′-yl)-1H-pyrazol-1-yl)benzonitrile] cannot be ordered by IC50: less than 500 nM for the first, less than 500 nM for the second.

`CCc1ccc(-c2cc(=O)n(C)cc2-c2cnn(-c3cccc(F)c3C#N)c2)cn1` [Example 372, 2-(4-(6-ethyl-1′-methyl-6-oxo-1′,6′-dihydro-[3,4′-bipyridin]-3′-yl)-1H-pyrazol-1-yl)-6-fluorobenzonitrile] and `CCc1ccc(-c2cc(=O)n(C)cc2-c2cnn(-c3ccccc3C#N)c2)cn1` [Example 373, 2-(4-(6-ethyl-1-methyl-6′-oxo-1′,6′-dihydro-[3,4′-bipyridin]-3′-yl)-1H-pyrazol-1-yl)benzonitrile] cannot be ordered by IC50: less than 500 nM for the first, less than 500 nM for the second.

`Cn1cc(-c2cnn(-c3cccc(F)c3C#N)c2)c(-c2ccc(C3CC3)nc2)cc1=O` [Example 374, 2-[4-[4-(6-cyclopropyl-3-pyridyl)-1-methyl-6-oxo-3-pyridyl]pyrazol-1-yl]-6-fluoro-benzonitrile] and `CC(C)c1ccc(-c2cc(=O)n(C)cc2-c2cnn(-c3cccc(F)c3C#N)c2)cn1` [Example 375, 2-fluoro-6-[4-[4-(6-isopropyl-3-pyridyl)-1-methyl-6-oxo-3-pyridyl]pyrazol-1-yl]benzonitrile] cannot be ordered by IC50: less than 500 nM for the first, less than 500 nM for the second.

`CC(C)c1ccc(-c2cc(=O)n(C)cc2-c2cnn(-c3cccc(Cl)c3C#N)c2)cn1` [Example 376, 2-chloro-6-[4-[4-(6-isopropyl-3-pyridyl)-1-methyl-6-oxo-3-pyridyl]pyrazol-1-yl]benzonitrile] and `Cc1ccc(-c2cc(=O)n(C)cc2-c2cnn(-c3ccccc3C#N)c2)cn1` [Example 377, 2-(4-(1′,6-dimethyl-6′-oxo-1′,6′-dihydro-[3,4′-bipyridin]-3′-yl)-1H-pyrazol-1-yl)benzonitrile] cannot be ordered by IC50: less than 500 nM for the first, less than 500 nM for the second.

`Cn1cc(-c2cnn(-c3cccc(F)c3C#N)c2)c(-c2ccc(C3CCCC3)nc2)cc1=O` [Example 378, 2-(4-(6-cyclopentyl-1′-methyl-6′-oxo-1′,6′-dihydro-[3,4′-bipyridin]-3′-yl)-1H-pyrazol-1-yl)-6-fluorobenzonitrile] and `Cn1cc(-c2cnn(-c3cccc(Cl)c3C#N)c2)c(-c2ccc(C3CCCC3)nc2)cc1=O` [Example 379, 2-chloro-6-(4-(6-cyclopentyl-1′-methyl-6′-oxo-1′,6′-dihydro-[3,4′-bipyridin]-3′-yl)-1H-pyrazol-1-yl)benzonitrile] cannot be ordered by IC50: less than 500 nM for the first, less than 500 nM for the second.

`Cn1ccc(-c2cc(=O)n(C)cc2-c2cnn(-c3cccc(C4CC4)c3C#N)c2)cc1=O` [Example 380, 2-cyclopropyl-6-[4-[1-methyl-4-(1-methyl-2-oxo-4-pyridyl)-6-oxo-3-pyridyl]pyrazol-1-yl]benzonitrile] and `Cn1cc(-c2cnn(-c3cccc(C4CC4)c3C#N)c2)c(-c2ccn(CC3CC3)c(=O)c2)cc1=O` [Example 381, 2-cyclopropyl-6-[4-[4-[1-(cyclopropylmethyl)-2-oxo-4-pyridyl]-1-methyl-6-oxo-3-pyridyl]pyrazol-1-yl]benzonitrile] cannot be ordered by IC50: less than 500 nM for the first, less than 500 nM for the second.

`CN(C)CCCOc1ccc(-c2cc(=O)n(C)cc2-c2cnn(-c3cccc(C4CC4)c3C#N)c2)cn1` [Example 382, 2-cyclopropyl-6-(4-(6-(3-(dimethylamino)propoxy)-1′-methyl-6′-oxo-1′,6′-dihydro-[3,4′-bipyridin]-3′-yl)-1H-pyrazol-1-yl)benzonitrile] and `COc1ccc(-c2cc(=O)n(C)cc2-c2cnn(-c3cccc(C4CC4)c3C#N)c2)cn1` [Example 383, 2-cyclopropyl-6-(4-(6-methoxy-1′-methyl-6′-oxo-1′,6′-dihydro-[3,4′-bipyridin]-3′-yl)-1H-pyrazol-1-yl)benzonitrile] cannot be ordered by IC50: less than 500 nM for the first, less than 500 nM for the second.

`CCOc1ccc(-c2cc(=O)n(C)cc2-c2cnn(-c3cccc(C4CC4)c3C#N)c2)cn1` [Example 384, 2-cyclopropyl-6-(4-(6-ethoxy-1′-methyl-6′-oxo-1′,6′-dihydro-[3,4′-bipyridin]-3′-yl)-1H-pyrazol-1-yl)benzonitrile] and `CCCn1ccc(-c2cc(=O)n(C)cc2-c2cnn(-c3cccc(C4CC4)c3C#N)c2)cc1=O` [Example 385, 2-cyclopropyl-6-[4-[1-methyl-6-oxo-4-(2-oxo-1-propyl-4-pyridyl)-3-pyridyl]pyrazol-1-yl]benzonitrile] cannot be ordered by IC50: less than 500 nM for the first, less than 500 nM for the second.

`CCn1ccc(-c2cc(=O)n(C)cc2-c2cnn(-c3cccc(C4CC4)c3C#N)c2)cc1=O` [Example 386, 2-cyclopropyl-6-[4-[4-(1-ethyl-2-oxo-4-pyridyl)-1-methyl-6-oxo-3-pyridyl]pyrazol-1-yl]benzonitrile] and `Cn1cc(-c2cnn(-c3cccc(C4CC4)c3C#N)c2)c(-c2ccc(OCCF)nc2)cc1=O` [Example 387, 2-cyclopropyl-6-[4-[4-[6-(2-fluoroethoxy)-3-pyridyl]-1-methyl-6-oxo-3-pyridyl]pyrazol-1-yl]benzonitrile] cannot be ordered by IC50: less than 500 nM for the first, less than 500 nM for the second.

`Cn1cc(-c2cnn(-c3cccc(C4CC4)c3C#N)c2)c(-c2ccn(C3CC3)c(=O)c2)cc1=O` [Example 388, 2-cyclopropyl-6-(4-(1′-cyclopropyl-1-methyl-2′,6-dioxo-1,1′,2′,6-tetrahydro-[4,4′-bipyridin]-3-yl)-1H-pyrazol-1-yl)benzonitrile] and `Cn1cc(-c2cnn(-c3cccc(C4CC4)c3C#N)c2)c(-c2ccn(CCF)c(=O)c2)cc1=O` [Example 389, 2-cyclopropyl-6-[4-[4-[1-(2-fluoroethyl)-2-oxo-4-pyridyl]-1-methyl-6-oxo-3-pyridyl]pyrazol-1-yl]benzonitrile] cannot be ordered by IC50: less than 500 nM for the first, less than 500 nM for the second.

`Cn1cc(-c2cnn(-c3cccc(C4CC4)c3C#N)c2)c(-c2ccn(CCO)c(=O)c2)cc1=O` [Example 390, 2-cyclopropyl-6-[4-[4-[1-(2-hydroxyethyl)-2-oxo-4-pyridyl]-1-methyl-6-oxo-3-pyridyl]pyrazol-1-yl]benzonitrile] and `Cn1cc(-c2cnn(-c3cccc(C4CC4)c3C#N)c2)c(-c2ccc(OCC3CC3)nc2)cc1=O` [Example 391, 2-cyclopropyl-6-(4-(6-(cyclopropylmethoxy)-1′-methyl-6′-oxo-1′,6′-dihydro-[3,4′-bipyridin]-3′-yl)-1H-pyrazol-1-yl)benzonitrile] cannot be ordered by IC50: less than 500 nM for the first, less than 500 nM for the second.

First: CCOc1cc(=O)n(C)cc1-c1cnn2c1CN(S(C)(=O)=O)CC2 [Example 392, 4-Ethoxy-5-(5-methanesulfonyl-4,5,6,7-tetrahydro-pyrazolo[1,5-a]pyrazin-3-yl)-1-methyl-1H-pyridin-2-one]
Second: CCOc1cc(=O)n(C)cc1-c1cnn2c1CN(C(C)=O)CC2 [Example 393, 5-(5-Acetyl-4,5,6,7-tetrahydro-pyrazolo[1,5-a]pyrazin-3-yl)-4-ethoxy-1-methyl-1H-pyridin-2-one]
The IC50 of the first is lower: less than 500 nM for the first, 500 to 5000 nM for the second.

Compared with `Cn1cc(-c2ncc(-c3ccccc3)o2)c(-c2ccccc2)cc1=O` [Example 394, 1-methyl-4-phenyl-5-(5-phenyloxazol-2-yl)pyridin-2(1H)-one], `Cn1nc(-c2cn(C)c(=O)cc2-c2ccccc2)cc1-c1ccccc1` [Example 395, 1-methyl-5-(1-methyl-5-phenyl-1H-pyrazol-3-yl)-4-phenylpyridin-2(1H)-one] is lower in IC50: 500 to 5000 nM for the first, less than 500 nM for the second. The second is the more potent here.

Compared with `Cn1cc(-c2coc(-c3ccccc3)n2)c(-c2ccccc2)cc1=O` [Example 396, 1-methyl-4-phenyl-5-(2-phenyloxazol-4-yl)pyridin-2(1H)-one], `Cn1cc(-c2cnc(-c3ccccc3)o2)c(-c2ccccc2)cc1=O` [Example 397, 1-methyl-4-phenyl-5-(2-phenyloxazol-5-yl)pyridin-2(1H)-one] is higher in IC50: less than 500 nM for the first, 500 to 5000 nM for the second.

Compound “N-{2-[5-(1-benzyl-1H-pyrazol-4- yl)-1-methyl-2-oxo-1,2-dihydro- pyridin-4-yl]-cyclo- pentyl}-acetamide [Example 88]” has an IC50 of less than 500 nM.

same assay, conditions: Table 30; read-out: CRREBBP IC50

`CC(c1ccccc1)n1cc(-c2cn(C)c(=O)cc2N2CCCC2)cn1` (stereo not drawn) [Example 41, 1-methyl-5-(1-(1-phenylethyl)-1H-pyrazol-4-yl)-4-(pyrrolidin-1-yl) pyridin-2(1H)-one] and `CC(c1ccccc1)n1cc(-c2cn(C)c(=O)cc2N2CCOCC2)cn1` (stereo not drawn) [Example 43, 1-methyl-4-morpholino-5-(1-(1-phenylethyl)-1H-pyrazol-4-yl) pyridin-2(1H)-one] cannot be ordered by IC50: less than 500 nM for the first, less than 500 nM for the second.

In the case of `Cc1sc2c(c1C)C(c1ccc(Cl)cc1)=N[C@@H](CC(=O)OC(C)(C)C)c1nnc(C)n1-2` [JQ-1, tert-butyl (S)-2-(4-(4-chloro-phenyl)-2,3,9-trimethyl-6H-thieno[3,2-f][1,2,4]triazolo[4,3-a][1,4]diazepin-6-yl)acetate, reference compound], the IC50 is reported as greater than 5000 nM.
